# Results published in patent US9156801B2, “2-substituted oleanolic acid derivative, method preparing for same, and application thereof” (HANGZHOU BENSHENG PHARMACEUTICAL CO., LTD., priority 2011, dated 2015).
# Key:
# Hep G2 cell line = experiment: solid tumor cell growth inhibition, MTT; assay type: cell-based, human; conditions: Homo sapiens; for inhibition at 16 µg/mL: HepG2, 72 h, Hep G2, 16 μg/mL compound, 72 h, read-out: IR (cell proliferation inhibition rate); for IC50: HepG2, Hep G2, 72 h
# Description: (§1) Hep-2 (laryngeal carcinoma), A549 (human lung cancer), CaES-17 (esophageal cancer cell), PC-3 (prostate cancer), CNE (nasopharyngeal carcinoma cell), and SK-OV-3 (ovarian cancer cell), all of which are purchased from China Center For Type Culture Collection; RKO (human colon adenocarcinoma cell), MGC 803 (human gastric cancer cell), MG63 (osteosarcoma) and U87 MG (malignant glioma cell), all of which are purchased from Fuxiang Bio-tech Co. Ltd., Shanghai, China; PANC-1 (pancreatic cancer), Hep G2 (human liver cancer cell), Becap37 (human breast cancer cell), and Hela (human cervical cancer cell), all of which are donated by Cancer Research Institute of Zhejiang University, China.
# (§2) Obtaining 4000 well-growing human solid tumor cells and inoculating them into wells of a 96-well cell culture plate. The culture medium is DMEM High Glucose cell culture medium containing 10% fetal bovine serum. The plate is placed in a carbon dioxide cell incubator (5% CO2) at 37° C. for 24 hours. After adding the 2-substituted oleanolic acid derivatives of different concentrations and mixing uniformly, the plate is placed in a carbon dioxide cell incubator (5% CO2) at 37° C. and incubated for 72 hours. Then the relative number of the living cells is determined by MTT method. In this experiment, the cell proliferation inhibition rate in control group (not treated with any compound) is set as 0%.
# NB4 cell line = experiment: leukemia cell growth inhibition, MTT; assay type: cell-based; conditions: Homo sapiens, NB-4; for inhibition at 16 µg/mL: NB4, 16 μg/mL compound, 72 h, read-out: IR (cell proliferation inhibition rate); for IC50: NB4, 72 h
# Excerpt: (§3) Leukemia cell lines: leukemia cell lines: K562/adr (drug-resistant, chronic myeloid leukemia, CML), NB4 (acute promyelocytic leukemia, AML), Kasumi-1 (acute myeloid leukemia M2 type, AML-M2), Jurkat (acute lymphoblastic leukemia, ALL), all of which are donated by Cancer Research Institute of Zhejiang University, China; and H9 (acute lymphoblastic leukemia, ALL), which is purchased from China Center for Type Culture Collection (CCTCC).
# (§4) Obtaining 6000 well-growing leukemia cells and inoculating them into wells of a 96-well cell culture plate. The culture medium is the 1640 cell culture medium containing 10% fetal bovine serum. After adding the 2-substituted oleanolic acid derivatives of different concentrations and mixing uniformly, placing the plate in a carbon dioxide cell incubator (5% CO2) at 37° C. and incubated for 72 hours. Then the relative number of viable cells is determined by MTT method. In this experiment, cell proliferation inhibition rate in control group (not treated with any compound) is set as 0%.
# Jurkat cell line = experiment: leukemia cell growth inhibition, MTT; assay type: cell-based; conditions: Homo sapiens, 72 h; for inhibition at 16 µg/mL: 16 μg/mL compound, read-out: IR (cell proliferation inhibition rate)
# Excerpt: as §3, §4
# H9 cell line = experiment: leukemia cell growth inhibition, MTT; assay type: cell-based; conditions: Homo sapiens; for IC50: H9, 72 h; for inhibition at 16 µg/mL: H9, 16 μg/mL compound, 72 h, read-out: IR (cell proliferation inhibition rate)
# Excerpt: as §3, §4
# K562/adr cell line = experiment: leukemia cell growth inhibition, MTT; assay type: cell-based; conditions: Homo sapiens, 72 h; for IC50: K562/Adr; for inhibition at 16 µg/mL: K562/adr, 16 μg/mL compound, read-out: IR (cell proliferation inhibition rate)
# Excerpt: as §3, §4
# Kasumi-1 cell line = experiment: leukemia cell growth inhibition, MTT; assay type: cell-based; conditions: Homo sapiens; for inhibition at 16 µg/mL: Kasumi-1, 16 μg/mL compound, 72 h, read-out: IR (cell proliferation inhibition rate); for IC50: Kasumi-1, 72 h
# Excerpt: as §3, §4
# RPMI8226 cell line = experiment: multiple myeloma cell growth inhibition, MTT; assay type: cell-based; conditions: Homo sapiens, RPMI-8226; for inhibition at 16 µg/mL: RPMI8226, 16 μg/mL compound, 72 h, read-out: IR (cell proliferation inhibition rate); for IC50: RPMI8226, 72 h
# Description: Multiple myeloma cell lines: RPMI8226 (multiple myeloma), purchased from Fuxiang Bio-tech Co. Ltd., Shanghai, China.
# Obtaining 6000 well-growing cells as above and inoculating them into wells of a 96-well cell culture plate. The culture medium is the 1640 cell culture medium containing 10% fetal bovine serum. After adding the 2-substituted oleanolic acid derivatives of different concentrations and mixing uniformly, placing the plate in a carbon dioxide cell incubator (5% CO2) at 37° C. and incubated for 72 hours. Then the relative number of viable cells is determined by MTT method. In this experiment, cell proliferation inhibition rate in control group (not treated with any compound) is set as 0%.
# SK-OV-3 cell line = experiment: solid tumor cell growth inhibition, MTT; assay type: cell-based; conditions: Homo sapiens; for IC50: SK-OV-3, 72 h; for inhibition at 16 µg/mL: SK-OV-3, 16 μg/mL compound, 72 h, read-out: IR (cell proliferation inhibition rate)
# Description: as §1, §2
# RKO cell line = experiment: solid tumor cell growth inhibition, MTT; assay type: cell-based; conditions: Homo sapiens, 72 h; for inhibition at 16 µg/mL: 16 μg/mL compound, read-out: IR (cell proliferation inhibition rate)
# Description: as §1, §2
# MG-63 cell line = experiment: solid tumor cell growth inhibition, MTT; assay type: cell-based; conditions: Homo sapiens; for IC50: MG-63, 72 h; for inhibition at 16 µg/mL: MG-63, 16 μg/mL compound, 72 h, read-out: IR (cell proliferation inhibition rate)
# Description: as §1, §2
# MGC 803 cell line = experiment: solid tumor cell growth inhibition, MTT; assay type: cell-based; conditions: Homo sapiens; for inhibition at 16 µg/mL: MGC 803, 16 μg/mL compound, 72 h, read-out: IR (cell proliferation inhibition rate); for IC50: MGC 803, 72 h
# Description: as §1, §2
# Hela cell line = experiment: solid tumor cell growth inhibition, MTT; assay type: cell-based; conditions: Homo sapiens, 72 h; for IC50: HeLa; for inhibition at 16 µg/mL: Hela, 16 μg/mL compound, read-out: IR (cell proliferation inhibition rate)
# Description: as §1, §2
# Hep-2 cell line = experiment: solid tumor cell growth inhibition, MTT; assay type: cell-based; conditions: Homo sapiens; for IC50: HEp-2, 72 h; for inhibition at 16 µg/mL: Hep-2, 16 μg/mL compound, 72 h, read-out: IR (cell proliferation inhibition rate)
# Description: as §1, §2
# CNE cell line = experiment: solid tumor cell growth inhibition, MTT; assay type: cell-based; conditions: Homo sapiens, 72 h; for inhibition at 16 µg/mL: 16 μg/mL compound, read-out: IR (cell proliferation inhibition rate)
# Description: as §1, §2
# U87 MG cell line = experiment: solid tumor cell growth inhibition, MTT; assay type: cell-based; conditions: Homo sapiens, U-87 MG, 72 h; for inhibition at 16 µg/mL: 16 μg/mL compound, read-out: IR (cell proliferation inhibition rate)
# Description: as §1, §2
# CaES-17 cell line = experiment: solid tumor cell growth inhibition, MTT; assay type: cell-based; conditions: Homo sapiens, CaEs17; for inhibition at 16 µg/mL: CaES-17, 16 μg/mL compound, 72 h, read-out: IR (cell proliferation inhibition rate); for IC50: CaES-17, 72 h
# Description: as §1, §2
# A549 cell line = experiment: solid tumor cell growth inhibition, MTT; assay type: cell-based; conditions: Homo sapiens; for IC50: A549, 72 h; for inhibition at 16 µg/mL: A549, 16 μg/mL compound, 72 h, read-out: IR (cell proliferation inhibition rate)
# Description: as §1, §2
# PANC-1 cell line = experiment: solid tumor cell growth inhibition, MTT; assay type: cell-based; conditions: Homo sapiens; for IC50: PANC-1, 72 h; for inhibition at 16 µg/mL: PANC-1, 16 μg/mL compound, 72 h, read-out: IR (cell proliferation inhibition rate)
# Description: as §1, §2
# Becap37 cell line = experiment: solid tumor cell growth inhibition, MTT; assay type: cell-based; conditions: Homo sapiens; for inhibition at 16 µg/mL: Becap37, 16 μg/mL compound, 72 h, read-out: IR (cell proliferation inhibition rate); for IC50: Becap37, 72 h
# Description: as §1, §2
# PC-3 cell line = experiment: solid tumor cell growth inhibition, MTT; assay type: cell-based; conditions: Homo sapiens; for IC50: PC-3, 72 h; for inhibition at 16 µg/mL: PC-3, 16 μg/mL compound, 72 h, read-out: IR (cell proliferation inhibition rate)
# Description: as §1, §2
IC50 (Hep G2 cell line) [µg/mL],IC50 (NB4 cell line) [µg/mL],IC50 (Jurkat cell line) [µg/mL],IC50 (H9 cell line) [µg/mL],IC50 (K562/adr cell line) [µg/mL],IC50 (Kasumi-1 cell line) [µg/mL],IC50 (RPMI8226 cell line) [µg/mL],IC50 (SK-OV-3 cell line) [µg/mL],IC50 (RKO cell line) [µg/mL],IC50 (MG-63 cell line) [µg/mL],SMILES,inhibition at 16 µg/mL (Hep G2 cell line) [%],inhibition at 16 µg/mL (NB4 cell line) [%],inhibition at 16 µg/mL (Jurkat cell line) [%],inhibition at 16 µg/mL (H9 cell line) [%],inhibition at 16 µg/mL (K562/adr cell line) [%],inhibition at 16 µg/mL (Kasumi-1 cell line) [%],inhibition at 16 µg/mL (RPMI8226 cell line) [%],inhibition at 16 µg/mL (SK-OV-3 cell line) [%],inhibition at 16 µg/mL (RKO cell line) [%],inhibition at 16 µg/mL (MG-63 cell line) [%],other results
1.94,2.96,1.67,2.67,0.68,3.95,0.61,3.72,2.39,1.62,CCN(CC)CCCNC(=O)C1C[C@]2(C)[C@H]3CC=C4[C@@H]5CC(C)(C)CC[C@]5(C(=O)OC)CC[C@@]4(C)[C@]3(C)CC[C@H]2C(C)(C)C1=O (some centres unmarked) [BS-OA-035],> 96,99.8,96.6,97.5,99.6,97,99.1,98.6,97.2,100,inhibition at 16 µg/mL (MGC 803 cell line): 98.9%; IC50 (MGC 803 cell line): 2.56 µg/mL; IC50 (Hela cell line): 3.11 µg/mL; inhibition at 16 µg/mL (Hela cell line): 98.1%; IC50 (Hep-2 cell line): 5.34 µg/mL; inhibition at 16 µg/mL (Hep-2 cell line): 98.5%; inhibition at 16 µg/mL (CNE cell line): 99%; IC50 (CNE cell line): 3.64 µg/mL; inhibition at 16 µg/mL (U87 MG cell line): 97.1%; IC50 (U87 MG cell line): 2.7 µg/mL; inhibition at 16 µg/mL (CaES-17 cell line): 98%; IC50 (CaES-17 cell line): 2.74 µg/mL; IC50 (A549 cell line): 2.02 µg/mL; inhibition at 16 µg/mL (A549 cell line): 97.3%; IC50 (PANC-1 cell line): 4.89 µg/mL; inhibition at 16 µg/mL (PANC-1 cell line): 99.8%; inhibition at 16 µg/mL (Becap37 cell line): 98.6%; IC50 (Becap37 cell line): 5.2 µg/mL; IC50 (PC-3 cell line): 5 µg/mL; inhibition at 16 µg/mL (PC-3 cell line): 98.5%
8.68,4.59,11.5,8.73,1.57,13.5,2.43,10.2,14.4,12.5,COC(=O)[C@]12CCC(C)(C)CC1C1=CCC3[C@@]4(C)CC(C(=O)NCCCN5CCOCC5)C(=O)C(C)(C)C4CC[C@@]3(C)[C@]1(C)CC2 (some centres unmarked) [BS-OA-037],95.7,97.6,80.4,95.8,97.6,63.7,99.1,90.9,62.6,64.6,inhibition at 16 µg/mL (MGC 803 cell line): 80.5%; IC50 (MGC 803 cell line): 10.8 µg/mL; IC50 (Hela cell line): 11 µg/mL; inhibition at 16 µg/mL (Hela cell line): 93.6%; IC50 (Hep-2 cell line): > 16 µg/mL; inhibition at 16 µg/mL (Hep-2 cell line): 25.6%; inhibition at 16 µg/mL (CNE cell line): 52.6%; IC50 (CNE cell line): 15.5 µg/mL; inhibition at 16 µg/mL (U87 MG cell line): 92.6%; IC50 (U87 MG cell line): 11.1 µg/mL; inhibition at 16 µg/mL (CaES-17 cell line): 82.3%; IC50 (CaES-17 cell line): 11.6 µg/mL; IC50 (A549 cell line): 10.4 µg/mL; inhibition at 16 µg/mL (A549 cell line): 82%; IC50 (PANC-1 cell line): > 16 µg/mL; inhibition at 16 µg/mL (PANC-1 cell line): 11.3%; inhibition at 16 µg/mL (Becap37 cell line): 8.4%; IC50 (Becap37 cell line): > 16 µg/mL; IC50 (PC-3 cell line): 18.7 µg/mL; inhibition at 16 µg/mL (PC-3 cell line): 44.2%
